Test results published in PubChem BioAssay (NCI).
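Exposure lasted 48 hours, with cells grown in 96-well plates and compounds tested at five concentrations. At the GI50, growth is halved. Definition used: TGI = concentration required for complete inhibition of growth.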

Legend:
Test in all cases: inhibition of tumour cell growth, NCI panel, 48 h
HOP-92 NSCLC = tested on: HOP-92 NSCLC
OVCAR-3 ovarian = tested on: OVCAR-3 ovarian
OVCAR-4 ovarian = tested on: OVCAR-4 ovarian
RPMI-8226 leukemia = tested on: RPMI-8226 leukemia
SNB-75 CNS = tested on: SNB-75 CNS
UACC-62 melanoma = tested on: UACC-62 melanoma
A549 NSCLC = tested on: A549 NSCLC
M14 melanoma = tested on: M14 melanoma
NCI-H226 lung = tested on: NCI-H226 lung
SF-539 CNS = tested on: SF-539 CNS

SMILES	TGI (HOP-92 NSCLC) [µM]	TGI (OVCAR-3 ovarian) [µM]	TGI (OVCAR-4 ovarian) [µM]	TGI (RPMI-8226 leukemia) [µM]	TGI (SNB-75 CNS) [µM]	TGI (UACC-62 melanoma) [µM]	TGI (A549 NSCLC) [µM]	TGI (M14 melanoma) [µM]	TGI (NCI-H226 lung) [µM]	TGI (SF-539 CNS) [µM]	GI50 (HOP-92 NSCLC) [µM]	GI50 (NCI-H226 lung) [µM]	GI50 (SNB-75 CNS) [µM]	GI50 (A549 NSCLC) [µM]	GI50 (M14 melanoma) [µM]	GI50 (OVCAR-3 ovarian) [µM]	GI50 (OVCAR-4 ovarian) [µM]	GI50 (RPMI-8226 leukemia) [µM]	GI50 (SF-539 CNS) [µM]	GI50 (UACC-62 melanoma) [µM]
CCCCCCCCCCCCCCN	> 100	> 100	> 100	> 100	> 100	> 100														
O=C(c1ccccc1)C1CCCCN1C(=O)c1ccccc1 (stereo not drawn)		> 100	> 100	> 100	> 100	> 100	> 100	> 100	> 100	> 100										
COc1ccc(NC(=O)C(=O)Cc2nc3ccc([N+](=O)[O-])cc3[nH]c2=O)c(OC)c1	> 100	> 100	> 100		> 100	> 100	> 100	> 100	> 100	> 100										
CS(=O)(=O)OCCN1CCN(C(=O)c2cccc3c(Nc4ccc(S(=O)(=O)N=C(N)N)cc4)c4ccccc4nc23)CC1	> 100	> 100	> 100	> 100	> 100	> 100	> 100	> 100	> 100	> 100										
CCOC(=O)/C(O)=C/c1cc(OC)cc(=O)o1	> 100	> 100	> 100	> 100	> 100	> 100	> 100	> 100	> 100	> 100										
CC1OC(OCC2OC(Oc3c(-c4ccc(O)cc4)oc4cc(O)cc(O)c4c3=O)C(OC3OC(C)C(O)C(O)C3O)C(O)C2O)C(O)C(O)C1O (stereo not drawn)	> 100	> 100	> 90.2	> 81.3	> 100	> 100	> 100	> 100	> 100	> 100										
COc1cc(/C=C\c2ccc(C)cc2)cc(OC)c1OC	4.13	0.00442	46.5	25.2			> 100		0.987	0.0218	0.0233	< 0.0134	0.0149							
COC[C@@H](N=CN1CCc2cc(OC)c(OC)cc2[C@@H]1C)C(C)(C)C	> 100	> 100	> 100	> 100	> 100	> 100	> 100	> 100	> 100	> 100										
CC1(C)C(=O)C(C)(C)C1=NN	> 100	> 100	> 100	> 100	> 100	> 100	> 100	> 100	> 100	> 100										
O=[N+]([O-])c1ccc(S(=O)Cc2ccccc2)c([N+](=O)[O-])c1 (stereo not drawn)		3.24	2.93	4.46	25.2	8.89	36.3	4.84	5.3	13.8		2.27	12	16.3	1.81	1.84	1.5	1.89	3.64	2.55
COc1cc2c(c(OC)c1OC)-c1ccc(N)c(=O)cc1[C@@H](NC(C)=O)CC2	> 100	0.0362	> 100	> 100		> 100	> 100			> 100	0.0409	0.0852		0.0563	0.0208	< 0.012	0.0542	0.0456	0.0289	0.0379
CCOC(=O)C1=C(C(=O)c2ccc(C)cc2)C(c2cccc([N+](=O)[O-])c2)C(C(=O)c2ccc(C)cc2)=C(C(=O)OCC)N1		28.8	84.6		> 100	33.5	66.1	32.9	35.2	26.7										
CN(C)c1ccc([O-])cc1.CN(C)c1ccc([O-])cc1.CN(C)c1ccc([O-])cc1.CN(C)c1ccc([O-])cc1.[Ti+4]		> 100	> 100	> 100	> 100	> 100	> 100	> 100	> 100	> 100		> 100	27.2	51.9	> 100	> 100	75.3	30.9	> 100	> 100
Clc1ccc(Cc2nc3ccccc3s2)c(Cl)c1		33	27	48.5	34.5	28.9	42.1	31.3	39.1	12										
COC(=O)C(C(=O)C(=O)Nc1ccc(C(F)(F)F)cc1[N+](=O)[O-])c1csc(-n2nc(-c3ccccc3)cc2-c2ccccc2)n1 (stereo not drawn)		> 100	> 100	> 100	> 100	> 100	> 100	> 100	> 100	> 100										
COC1=CC(=O)C2C(C1=O)[C@@H]1c3ccccc3C[C@H]21 (stereo partly drawn)	> 100	> 100	> 100	> 100	> 100	> 100	> 100	> 100		> 100										
CCCCS(=O)CCC(N)C(=O)O (stereo not drawn)		> 100	> 100		> 100	> 100	> 100	> 100	> 100	> 100										
CCCCc1c2c(nc3c1CCc1cc4cc5c(nc4nc1-3)-c1nc3c(c(CCCC)c1CC5)CCCC3)CCCC2				> 100	> 100	52	> 100	> 100	89.1	> 100										
CC1CC#CCOC(=O)CCCC1=O (stereo not drawn)		> 100	> 100	> 100	> 100	> 100	> 100	> 100	> 100	> 100										
O=C1c2ccc([N+](=O)[O-])cc2-c2c1c1ccccc1c(=O)n2CCCNCCCNCCCn1c2c(c3ccc([N+](=O)[O-])cc3c1=O)C(=O)c1ccccc1-2		6.16	2.88	0.82	5.54	4.85	> 40.8	33.9	8.53	7		1.57	0.427	2.69	13.6	2.2	1.06	0.258	1.96	1.71

SMILES	TGI (HOP-92 NSCLC) [µM]	TGI (OVCAR-3 ovarian) [µM]	TGI (OVCAR-4 ovarian) [µM]	TGI (RPMI-8226 leukemia) [µM]	TGI (SNB-75 CNS) [µM]	TGI (UACC-62 melanoma) [µM]	TGI (A549 NSCLC) [µM]	TGI (M14 melanoma) [µM]	TGI (NCI-H226 lung) [µM]	TGI (SF-539 CNS) [µM]	GI50 (HOP-92 NSCLC) [µM]	GI50 (NCI-H226 lung) [µM]	GI50 (SNB-75 CNS) [µM]	GI50 (A549 NSCLC) [µM]	GI50 (M14 melanoma) [µM]	GI50 (OVCAR-3 ovarian) [µM]	GI50 (OVCAR-4 ovarian) [µM]	GI50 (RPMI-8226 leukemia) [µM]	GI50 (SF-539 CNS) [µM]	GI50 (UACC-62 melanoma) [µM]
CO/C(=N\N=C\c1cccc(Cl)c1)c1ccncc1	> 10	> 10	> 10	> 10			> 10	> 10	> 10											
CCCc1c(CC)c(=N)c2ccccc2n1C	> 100	> 100	> 100	> 100	> 100	> 100	> 100		> 100	> 100	30.5	93.6	74.1	> 100		59.9	20.1	36.3	> 100	66.3
NCCCOCC(=O)O	> 100	> 100	> 100	> 100	> 100	> 100	> 100		> 100	> 100										
CC(=O)N[C@@H]1C(O)CN2C(=O)C(=O)O[C@H](C(O)CO)[C@@H]12 (stereo partly drawn)	> 100	> 100		> 100	> 100		> 100			> 100										
O=C(Nc1ccc(Cl)cc1Cl)C(=O)C(C(=O)c1ccc2ccccc2c1)C1OC(=O)c2ccccc21 (stereo not drawn)	8.92	26.1	35.2	> 100		46.7	73.6	28	6.33	11.7										
CCCCCCCNc1nc(C(=O)OCC)ncc1-c1ccc(C(F)(F)F)cc1	> 100	> 100	> 100	66.9	> 100	> 100	> 100	> 100	> 100		24.8	30.5	41.7	> 100	35.8	32.6	13.8	17.8		25.2
OCCCOC(c1ccccc1)(c1ccccc1)c1ccccc1	> 100	> 100	> 100	> 100	62	> 100	> 100	> 100		> 100										
CC(=O)Nc1ccc(C(=O)NN2C(=O)C(Cl)C2c2ccc([N+](=O)[O-])cc2)cc1 (stereo not drawn)	> 100	> 100	> 100		> 100	> 100	> 100	> 100	> 100	> 100										
COc1ccc2c(c1)/C(=C\c1cccnc1)C(=O)N2	69.7	> 100	> 100	76.7	68.1		56.7	83.8	23.6		26.6	7.38	27.9	18.2	31	40.5	38.2	18.6		
COc1ccc(-c2cc(=O)c3c(C)cc(C)nc3[nH]2)cc1	> 100	> 100	> 100	54.6		46.6	> 100	> 100	> 100	> 100						32.7				
COc1cc(CCN)c2c(c1OC)SSSSS2	2.96	0.538	2.51	1.77	2.87	2.97	2.71	0.676		2.62	1.42		1.5	1.38	0.085	0.204	1.05	0.287	1.25	1.37
CC12N=NN(c3ccc([N+](=O)[O-])cc3)C1(O)c1ccccc1C2=O (stereo not drawn)		> 100		> 100		> 100	> 100	> 100	> 100	> 100										
O=C(c1ccc(Cl)cc1)c1ccc(OCCCCCCCCCCOc2ccc(C(=O)c3ccc(Cl)cc3)cc2)cc1	> 100	> 100		> 100	> 100	> 100	> 100		> 100											
C/C(=N\O)c1cccc(Nc2cc(-n3ccnn3)c3ccccc3n2)c1	38.2	55.8	27.8	32		25.4	43.2		9.35	44	13.9	0.388		16.9		20.2	0.25	12.5	19	12.8
Cn1nc(-c2ccccc2)c(C(=O)/C=C/c2ccc(F)cc2)c(N2CCCCC2)c1=O	20			6.98		30	55.1	28.6		16.4										
OC1c2ccccc2C2(O)C1C(c1ccccc1)C(c1ccccc1)C2(O)c1ccccc1 (stereo not drawn)	23.9	26.9	> 100	65.1	46.2	28.4	81.2	28.3		26										
O=C(/C=C/c1ccccc1)CC1OC(=O)c2ccccc21 (stereo not drawn)	> 100		> 100	82.5	> 100	66.5	> 100	> 100	83.1	> 100										
O=C([CH-]C(=O)c1ccccc1)c1ccccc1.O=C([CH-]C(=O)c1ccccc1)c1ccccc1.O=C([CH-]C(=O)c1ccccc1)c1ccccc1.[Nd+3].[OH3+]	25.5	14.8	51.7	26.4	7.23	19.2	31.8	21.2		45.9	8.29		2.91	8.41	6.89	3.01	6.63	3.47	13.7	4.3
O=C(Nc1cccc([N+](=O)[O-])c1)C(=O)C(C(=O)c1ccccc1-c1ccccc1)C1OC(=O)c2ccccc21 (stereo not drawn)	32.8	36.4		60.3	64.8	45.7	82.7	41.1	25.9	28.4										
